A melting point compilation (Tetko et al.; mined from patent text by program, amines drawn as free bases though some values may be those of a salt)

Row | SMILES | melting point
1 | CCN1C(C)=CC(=O)CS1(=O)=O | 90 to 92 °C
2 | CCOC(=O)C(C)(C)NC(=O)c1c(Cl)c2cc(Oc3ccc(C(F)(F)F)cc3)ccc2n1-c1ccc(OC(C)C)cc1 | 135 to 137 °C
3 | CC(=O)C1=CCC2C3CCC4CC=CCC4(C)C3C(=O)CC12C (centres undefined) | 176 to 177 °C
4 | CC(C)(C)OC(=O)c1ncn2c1[C@@H]1CCN1C(=O)c1ccccc1-2 | 185 to 187 °C
5 | CC(=O)Nc1ccc(OC2SCC(O)C(O)C2O)cc1 (centres undefined) | 238 °C
6 | CN(C)c1ccc(C(=O)C(F)(F)c2ccccc2)cc1 | 115 to 116 °C
7 | CNC(=NC#N)NCc1c(C)cc(C)c(CNC(=NC#N)NC)c1C | 270 to 272 °C
8 | O=C(Oc1cccc2ccccc12)c1ccc(CCl)cc1 | 93 to 96 °C
9 | O=C1Nc2cccnc2N(C(=O)NCCN2CCCCC2CN2CCOCC2)c2ccccc21 (centres undefined) | 167 °C
10 | CN(Cc1nc(-c2cc(C(C)(C)C)c(O)c(C(C)(C)C)c2)cs1)C(=O)OC(C)(C)C | 126 to 127 °C
11 | Cc1ccc(S(=O)(=O)N[C@@H]2CCCC[C@H]2OCC(=O)O)cc1 (relative stereo) | 56 to 58 °C
12 | O=c1[nH]c2ccsc2c(=O)n1CCN1CCC(=C(c2ccc(F)cc2)c2ccc(F)cc2)CC1 | 207 to 208 °C
13 | C[C@H](NC(=O)C[C@](O)(CC(C)(C)O)c1ccccc1)c1ccc(Br)cc1 | 150 to 152 °C
14 | Nc1ccc(Oc2ccccc2)cc1SC(c1ccc2c(c1)OCO2)C(O)C(=O)O (centres undefined) | 158 to 159 °C
15 | CCOC(=O)CCCOc1ccc2c(c1)C(N(CC)S(C)(=O)=O)CC(C)(C)O2 (centres undefined) | 40 to 42 °C
16 | Cc1ccccc1P(=O)(Cc1ccc2ccccc2c1-c1c(CP(=O)(c2ccccc2C)c2ccccc2C)ccc2ccccc12)c1ccccc1C | 231 to 234 °C
17 | O=C(Cc1ccccc1)NN(C1=NCCS1)c1ccccc1 | 121 to 124 °C
18 | COC(=O)c1cc(C(=O)NCCCCN2CCC(c3ccc4c(c3OC)CCCC4)CC2)ccc1-c1ccc(C(F)(F)F)cc1 | 132 °C
19 | O=C(O)[C@@]1(O)C[C@@H](O)[C@H](O)C2=C1CC(Cc1ccccc1)(Cc1ccccc1)S2 | 209 to 212 °C
20 | COC(=O)C(=CNc1ccsc1C(=O)O)SC | 179 to 180 °C
21 | O=C(CC12CC3CC(CC(C3)C1)C2)N1CCc2sccc2C1 | 121 to 125 °C
22 | O=C(CCC(O)c1ccccc1)NC1CCCCC1 (centres undefined) | 91 to 93 °C
23 | O=C1N[C@H](Cc2cccc(OC(F)(F)C(F)F)c2)[C@H](c2cccc(F)n2)O1 (racemic) | 118 to 119 °C
24 | O=C(Nc1ccc(OCCCN2CCCC2=O)c2ccccc12)c1cc(F)cc(N2CCCCC2)c1 | 88 to 89 °C
25 | NCc1cn(CCC(=O)O)c(=S)n1[C@H]1CCc2c(F)cc(F)cc2C1 | 191 °C
26 | CC(C)(C)OC(=O)NCCNc1nnc(N)s1 | 219 to 220 °C
27 | CS(=O)(=O)NC1CCCOc2ccccc21 (centres undefined) | 105 to 106 °C

Continued, values first:

Row | melting point | SMILES
28 | 152 to 154 °C | CC(=O)c1ccc(-c2ccc(F)cc2)c(O)c1
29 | 115 to 117 °C | CCOc1nc2ccccc2nc1N(CC)C(=O)N1CCN(c2cc(Cl)cc(Cl)c2)CC1
30 | 259 to 261 °C | Nc1cc(-n2cncn2)ccc1[N+](=O)[O-]
31 | 198 to 200 °C | CNC(=O)NC(=O)N1CCN(c2ccccc2)CC1
32 | 100 to 102 °C | O=C(OCc1ccccc1)N1CCC2(CC1)CN(c1ccccc1)C(=O)O2
33 | 196 to 197 °C | O=C(O)c1ccc(C=Cc2csc3ccccc23)s1
34 | 145 to 146 °C | CCC(=O)C(O)(Cc1ccc(Cl)cc1Cl)c1cccnc1 (centres undefined)
35 | 96 to 98 °C | c1ccc(Cn2c3ccccc3c3ccsc32)cc1
36 | 207 to 208 °C | O=S1(=O)CCCc2[nH]c3ccccc3c2CC1
37 | 68 to 70 °C | CN1CCc2cc(Cl)c(N)cc2[C@@H](c2ccccc2)C1
38 | 140 to 141 °C | CC1(c2ccccc2)CN(c2ccnc(N)c2)C(=O)O1 (centres undefined)
39 | 70 to 71 °C | CCN(CC)[C@@H]1C(=O)N(C)[C@H]1c1ccccc1 (relative stereo)
